Experimental data as given in publication PMC9305971, “Development of [^18F]AmBF3 Tetrazine for Radiolabeling of Peptides: Preclinical Evaluation and PET Imaging of [^18F]AmBF3-PEG7-Tyr^3-Octreotide in an AR42J Pancreatic Carcinoma Model” (Bioconjugate Chemistry, 2022).

Assay: Dosimetry from dynamic PET, extrapolated to adult humans (OLINDA/EXM)
Format: in vivo, Rj:NMRI-Foxn1^nu/nu mice
Settings: extrapolated to adult human
Description: Dosimetry of [^18F]15 was calculated from the acquired PET/CT imaging data with Molecubes PET (β-CUBE) coupled with a CT (X-CUBE) (Ghent, Belgium). Regions of interest were drawn on source organs, namely, the heart, kidneys, liver, and lungs. Time–activity curves (TAC) were converted from mouse to human time −activity curves with the following equation [drawing 1] where morgan,h and WBh are the organ and whole-body weights for human, respectively. Mass morgan,m and WBm are the organ weight and the whole-body weight for mouse, respectively. Time–activity curves were normalized to 1 MBq injection, and the physical decay correction was removed. After this, the TAC’s were extrapolated into 3000 min, which corresponds in practice to infinity. Numbers of disintegrations in source organs are defined by integrating TAC from time 0 to 3000 min, and this value is input for OLINDA/EXM (version 2.1, Vanderbilt University, 2012) dosimetry software, where ICRP 89 reference adult male (73 kg) and ICRP 103 radiation weighting factors were used. Absorbed doses to each target organ are given in units mGy/MBq, and the effective dose is in units mSv/MBq.
Table S3. Dosimetry calculations.
Results after intravenous administration of [18F]15 from OLINDA/EXM (Version 2.1, Vanderbilt University, 2012), where ICRP 89 reference adult male (73 kg) and ICRP 103 radiation weighting factors were used. Absorbed doses to each target organ is given in units mGy/MBq and the effective dose in units mSv/MBq. The difference in radiation burden based on baseline (non-block) and blocked mice is negligible.
Target organ Baseline Avg. Baseline Std. Blocked Avg. Blocked Std. […]

In the case of C[C@@H](O)[C@@H]1NC(=O)[C@H](CCCCN)NC(=O)[C@@H](Cc2c[nH]c3ccccc23)NC(=O)[C@H](Cc2ccc(O)cc2)NC(=O)[C@@H](NC(=O)[C@@H](Cc2ccccc2)NC(=O)CCOCCOCCOCCOCCON=Cc2ccc(C(=O)NCCOCCOCCOCCNC(=O)OC3CCCc4cnnc(-c5ccc(CC(=O)NCC[N+](C)(C)C[B-](F)(F)F)cc5)c4CC3)cc2)CSSC[C@@H](C(=O)N[C@H](CO)[C@@H](C)O)NC1=O (some centres unmarked) [[^18F]15], the “absorbed dose, adrenals” value (baseline) is reported as 0.0190 ± 0.0008 mGy/MBq, the “absorbed dose, brain” value (baseline) is reported as 0.0102 mGy/MBq and the “absorbed dose, esophagus” value (baseline) is reported as 0.0129 mGy/MBq. The “absorbed dose, eyes” value (baseline) was 0.0102 mGy/MBq, the “absorbed dose, gallbladder wall” value (baseline) was 0.0194 ± 0.0011 mGy/MBq and the “absorbed dose, heart wall” value (baseline) was 0.0148 mGy/MBq. For the same compound, the “absorbed dose, kidneys” value (baseline) was 0.0366 ± 0.0016 mGy/MBq, the “absorbed dose, left colon” value (baseline) was 0.0143 mGy/MBq and the “absorbed dose, lungs” value (baseline) was 0.0109 mGy/MBq. The “absorbed dose, osteogenic cells” value (baseline) was 0.0120 mGy/MBq, the “absorbed dose, pancreas” value (baseline) was 0.0156 ± 0.0002 mGy/MBq and the “absorbed dose, prostate” value (baseline) was 0.0135 mGy/MBq. The “absorbed dose, rectum” value (baseline) was 0.0136 mGy/MBq, the “absorbed dose, red marrow” value (baseline) was 0.0113 mGy/MBq and the “absorbed dose, right colon” value (baseline) was 0.0151 mGy/MBq. The “absorbed dose, salivary glands” value (baseline) was 0.0118 mGy/MBq, the “absorbed dose, small intestine” value (baseline) was 0.0144 mGy/MBq and the “absorbed dose, spleen” value (baseline) was 0.0137 mGy/MBq. The “absorbed dose, stomach wall” value (baseline) was 0.0141 mGy/MBq, the “absorbed dose, testes” value (baseline) was 0.0112 mGy/MBq and the “absorbed dose, thymus” value (baseline) was 0.0122 mGy/MBq. For the same compound, the “absorbed dose, thyroid” value (baseline) was 0.0118 mGy/MBq, the “absorbed dose, total body” value (baseline) was 0.0121 mGy/MBq and the “absorbed dose, urinary bladder wall” value (baseline) was 0.0134 ± 0.0003 mGy/MBq. For the same compound, the effective dose (baseline) was 0.0112 mSv/MBq, the “absorbed dose, adrenals” value (baseline, listed as [18F]15) was 0.0190 mGy/MBq and the “absorbed dose, gallbladder wall” value (baseline, listed as [18F]15) was 0.0194 mGy/MBq. The “absorbed dose, kidneys” value (baseline, listed as [18F]15) was 0.0366 mGy/MBq, the “absorbed dose, liver” value (baseline, listed as [18F]15) was 0.0334 mGy/MBq and the “absorbed dose, pancreas” value (baseline, listed as [18F]15) was 0.0156 mGy/MBq. For the same compound, the “absorbed dose, urinary bladder wall” value (baseline, listed as [18F]15) was 0.0134 mGy/MBq, the “absorbed dose, adrenals” value (blocked) was 0.0185 ± 0.0001 mGy/MBq and the “absorbed dose, brain” value (blocked) was 0.0103 mGy/MBq. The “absorbed dose, esophagus” value (blocked) was 0.0129 mGy/MBq, the “absorbed dose, eyes” value (blocked) was 0.0103 mGy/MBq and the “absorbed dose, gallbladder wall” value (blocked) was 0.0190 ± 0.0011 mGy/MBq. For the same compound, the “absorbed dose, heart wall” value (blocked) was 0.0150 mGy/MBq, the “absorbed dose, kidneys” value (blocked) was 0.0337 ± 0.0043 mGy/MBq and the “absorbed dose, left colon” value (blocked) was 0.0144 mGy/MBq. The “absorbed dose, liver” value (blocked) was 0.0313 ± 0.0040 mGy/MBq, the “absorbed dose, lungs” value (blocked) was 0.0106 mGy/MBq and the “absorbed dose, osteogenic cells” value (blocked) was 0.0121 mGy/MBq. The “absorbed dose, pancreas” value (blocked) was 0.0154 ± 0.0001 mGy/MBq, the “absorbed dose, prostate” value (blocked) was 0.0136 mGy/MBq and the “absorbed dose, rectum” value (blocked) was 0.0137 mGy/MBq. For the same compound, the “absorbed dose, red marrow” value (blocked) was 0.0114 mGy/MBq, the “absorbed dose, right colon” value (blocked) was 0.0150 mGy/MBq and the “absorbed dose, salivary glands” value (blocked) was 0.0119 mGy/MBq. The “absorbed dose, small intestine” value (blocked) was 0.0145 mGy/MBq, the “absorbed dose, spleen” value (blocked) was 0.0136 mGy/MBq and the “absorbed dose, stomach wall” value (blocked) was 0.0141 mGy/MBq. The “absorbed dose, testes” value (blocked) was 0.0113 mGy/MBq, the “absorbed dose, thymus” value (blocked) was 0.0122 mGy/MBq and the “absorbed dose, thyroid” value (blocked) was 0.0119 mGy/MBq. The “absorbed dose, total body” value (blocked) was 0.0121 mGy/MBq, the “absorbed dose, urinary bladder wall” value (blocked) was 0.0135 ± 0.0000 mGy/MBq and the effective dose (blocked) was 0.011 mSv/MBq. For the same compound, the “absorbed dose, adrenals” value (blocked, listed as [18F]15) was 0.0185 mGy/MBq, the “absorbed dose, gallbladder wall” value (blocked, listed as [18F]15) was 0.0190 mGy/MBq and the “absorbed dose, kidneys” value (blocked, listed as [18F]15) was 0.0337 mGy/MBq. For the same compound, the “absorbed dose, liver” value (blocked, listed as [18F]15) was 0.0313 mGy/MBq, the “absorbed dose, pancreas” value (blocked, listed as [18F]15) was 0.0154 mGy/MBq and the “absorbed dose, urinary bladder wall” value (blocked, listed as [18F]15) was 0.0135 mGy/MBq. For the same compound, the “absorbed dose, all organs” value was “below 0.04 mGy/MBq” and the “absorbed dose, all other organs apart from the kidneys and liver” value was no more than 0.02 mGy/MBq.
